Assay results from ChEMBL document CHEMBL3407449, “Synthesis, anticancer and radiosensitizing evaluation of some novel sulfonamide derivatives” (Eur J Med Chem, 2015).

Legend:
HepG2 [1] = test: Cytotoxicity against human HepG2 cells assessed as surviving fraction ratio at 50 uM after 48 hrs by SRB assay relative to control; assay type: functional
HepG2 [2] = test: Cytotoxicity against human HepG2 cells assessed as surviving fraction ratio at 25 uM incubated for 2 hrs prior to 8Gy gamma-irradiation measured after 48 hrs by ELISA reader relative to control; assay type: functional
HepG2 [3] = test: Cytotoxicity against human HepG2 cells assessed as surviving fraction ratio incubated for 2 hrs prior to 8Gy gamma-irradiation measured after 48 hrs by ELISA reader relative to control; assay type: functional, cell-based; conditions: HepG2, light or radiation study
HepG2 [4] = test: Cytotoxicity against human HepG2 cells assessed as surviving fraction ratio after 48 hrs by SRB assay relative to control; assay type: functional, cell-based
HepG2 [5] = test: Cytotoxicity against human HepG2 cells assessed as surviving fraction ratio at 5 uM incubated for 2 hrs prior to 8Gy gamma-irradiation measured after 48 hrs by ELISA reader relative to control; assay type: functional
HepG2 [6] = test: Cytotoxicity against human HepG2 cells assessed as surviving fraction ratio at 12.5 uM incubated for 2 hrs prior to 8Gy gamma-irradiation measured after 48 hrs by ELISA reader relative to control; assay type: functional
HepG2 [7] = test: Cytotoxicity against human HepG2 cells assessed as surviving fraction ratio at 25 uM after 48 hrs by SRB assay relative to control; assay type: functional
HepG2 [8] = test: Cytotoxicity against human HepG2 cells assessed as surviving fraction ratio at 12.5 uM after 48 hrs by SRB assay relative to control; assay type: functional
HepG2 [9] = test: Cytotoxicity against human HepG2 cells assessed as surviving fraction ratio at 5 uM after 48 hrs by SRB assay relative to control; assay type: functional
HepG2 [10] = test: Cytotoxicity against human HepG2 cells assessed as surviving fraction ratio at 50 uM incubated for 2 hrs prior to 8Gy gamma-irradiation measured after 48 hrs by ELISA reader relative to control; assay type: functional
[11] = Homo sapiens, HepG2, 48 h, read-out: IC50

Structure (SMILES) | Ratio (HepG2 [1]) | Ratio (HepG2 [2]) | IC50 (HepG2 [3]) [µM] | IC50 (HepG2 [4]; [11]) [µM] | Ratio (HepG2 [5]) | Ratio (HepG2 [6]) | Ratio (HepG2 [7]) | Ratio (HepG2 [8]) | Ratio (HepG2 [9]) | Ratio (HepG2 [10]) | IC50 (HepG2 [4]; hepg2)
C/C(=N\NC(=O)c1sc(N)c(C#N)c1N)c1ccc(NS(=O)(=O)c2ccc(C)cc2)cc1 | 0.323 | 0.105 | 5.8 | 21.8 | 0.291 | 0.227 | 0.39 | 0.383 | 0.571 | 0.174 | 
C/C(=N\NC(=O)CC#N)c1ccc(NS(=O)(=O)c2ccccc2)cc1 | 0.242 |  |  | 28 |  |  | 0.361 | 0.778 | 0.881 |  | 
C/C(=N/NC(=O)C(C#N)C(=S)S)c1ccc(NS(=O)(=O)c2ccc(C)cc2)cc1 (stereo not given) | 0.414 | 0.189 | 5 | 11 | 0.245 | 0.206 | 0.291 | 0.229 | 0.344 | 0.158 | 
C/C(=N/n1c(N)cc(N)c(C#N)c1=O)c1ccc(NS(=O)(=O)c2ccccc2)cc1 | 0.321 | 0.299 | 11.5 | 25.5 | 0.395 | 0.194 | 0.312 | 0.556 | 0.748 | 0.34 | 
Cc1ccc(/C=C/C(=O)c2ccc(NS(=O)(=O)c3ccc(C)cc3)cc2)cc1 | 0.489 |  |  | 49.8 |  |  | 0.781 | 1.616 | 1.931 |  | 
Cc1ccc(S(=O)(=O)Nc2ccc(-c3cc(-c4ccc([N+](=O)[O-])cc4)n(C(N)=S)n3)cc2)cc1 | 0.5 |  |  |  |  |  | 1.078 | 1.759 | 1.907 |  | Not Active
C/C(=N\n1c(N)cc(N)c(C#N)c1=O)c1ccc(NS(=O)(=O)c2ccc(C)cc2)cc1 | 0.385 |  |  | 37 |  |  | 0.577 | 0.761 | 0.937 |  | 
Cc1ccc(S(=O)(=O)Nc2ccc(C(=O)/C=C/c3ccc(Br)cc3)cc2)cc1 | 0.445 | 0.394 | 26.8 | 30.3 | 0.591 | 0.471 | 0.43 | 0.505 | 0.584 | 0.408 | 
CC(=O)c1ccc(NS(=O)(=O)c2ccccc2)cc1 | 0.417 |  |  | 35.3 |  |  | 0.464 | 0.719 | 0.891 |  | 
C/C(=N/n1c(N)c(C#N)c(-c2ccc([N+](=O)[O-])cc2)c(C#N)c1=O)c1ccc(NS(=O)(=O)c2ccc(C)cc2)cc1 | 0.408 | 0.345 | 23.5 | 31.5 | 0.439 | 0.603 | 0.331 | 0.635 | 0.951 | 0.352 | 
Cc1ccc(S(=O)(=O)Nc2ccc(C(=O)/C=C/c3ccc([N+](=O)[O-])cc3)cc2)cc1 | 0.495 | 0.368 | 20.5 | 26 | 0.558 | 0.451 | 0.392 | 0.348 | 0.476 | 0.249 | 
Cc1ccc(S(=O)(=O)Nc2ccc(-c3cc(-c4ccc([N+](=O)[O-])cc4)[nH]c(=O)n3)cc2)cc1 | 0.481 |  |  | 46.3 |  |  | 0.732 | 0.95 | 1.619 |  | 
Cc1ccc(S(=O)(=O)Nc2ccc(C(=O)/C=C/c3ccc(F)cc3)cc2)cc1 | 0.551 |  |  | 39.3 |  |  | 0.383 | 0.497 | 1.461 |  | 
C/C(=N/NC(=O)/C(C#N)=C/N(C)C)c1ccc(NS(=O)(=O)c2ccc(C)cc2)cc1 | 0.378 |  |  | 37.8 |  |  | 0.546 | 0.877 | 1.141 |  | 
Cc1ccc(S(=O)(=O)Nc2ccc(C(=O)/C=C/c3ccc(Cl)cc3)cc2)cc1 | 0.402 |  |  | 43.3 |  |  | 0.591 | 1.478 | 2.16 |  | 
Cc1ccc(S(=O)(=O)Nc2ccc(C(/C=C/c3ccc([N+](=O)[O-])cc3)=N\O)cc2)cc1 | 0.632 |  |  |  |  |  | 1.351 | 1.769 | 1.723 |  | Not Active
Cc1ccc(S(=O)(=O)Nc2ccc(C(=O)/C=C/c3ccccc3)cc2)cc1 | 0.529 |  |  |  |  |  | 1.017 | 2.032 | 2.385 |  | Not Active
Cc1ccc(S(=O)(=O)Nc2ccc(-c3cc(-c4ccc([N+](=O)[O-])cc4)n(C(=S)NN)n3)cc2)cc1 | 0.53 |  |  | 45.3 |  |  | 0.507 | 1.189 | 1.766 |  | 
C/C(=N\NC(=O)c1sc(N)c(C#N)c1N)c1ccc(NS(=O)(=O)c2ccccc2)cc1 | 0.274 | 0.253 | 18.3 | 23.3 | 0.526 | 0.386 | 0.239 | 0.456 | 0.869 | 0.322 | 
Cc1ccc(S(=O)(=O)Nc2ccc(-c3cc(-c4ccc([N+](=O)[O-])cc4)[nH]c(=S)n3)cc2)cc1 | 0.398 |  |  | 36.5 |  |  | 0.486 | 0.805 | 1.066 |  | 
Cc1ccc(S(=O)(=O)Nc2ccc(-c3cc(-c4ccc([N+](=O)[O-])cc4)[nH]n3)cc2)cc1 | 0.508 |  |  | 44.8 |  |  | 0.522 | 1.197 | 1.772 |  | 
CC(=O)c1ccc(NS(=O)(=O)c2ccc(C)cc2)cc1 | 0.367 |  |  | 35.8 |  |  | 0.547 | 0.726 | 1.048 |  | 
C/C(=N\NC(=O)CC#N)c1ccc(NS(=O)(=O)c2ccc(C)cc2)cc1 | 0.293 |  |  | 26 |  |  | 0.349 | 0.53 | 0.837 |  | 
Cc1ccc(S(=O)(=O)Nc2ccc(-c3cc(-c4ccc([N+](=O)[O-])cc4)n(-c4ccccc4)n3)cc2)cc1 | 0.536 |  |  |  |  |  | 0.923 | 1.841 | 2.085 |  | Not Active
COc1ccc(-c2c(C#N)c(N)n(/N=C(/C)c3ccc(NS(=O)(=O)c4ccc(C)cc4)cc3)c(=O)c2C#N)cc1 | 0.375 |  |  | 31.8 |  |  | 0.363 | 0.696 | 0.984 |  | 
